Values after ≈ are worked out from the molar mass of the structure shown. Like-named read-outs stand apart in the source and are kept apart here.
Assays:
[1] = Visual solubility analysis in 13 solvents; assay type: physicochemical; details: organic solvent or mixture, thermodynamic from solid, read-out: Solubility (S)
Protocol: The solubility of the crystalline form Compound 1 was visually determined in 13 solvents. 5.0±0.2mg of the crystalline form Compound 1 was stirred at 20° C. with increasing volumes of solvents until a clear solution was visually observed.

[2] = Gravimetric vapor sorption (GVS) analysis; assay type: physicochemical
Source text: The GVS analysis was made using an IGA Sorp instrument by Hiden Analytical. The instrumental parameters are listed below.
FIG. 6 illustrates the GVS analysis result.

[3] = Thermal analysis (TGA and DSC); assay type: physicochemical
Source text: The crystalline form Compound 1 prepared according to Example 1 was characterized by thermal gravimetric analysis (TGA) and differential scanning calorimetry (DSC). The TGA analysis was made by a TA Q5000 instrument. The DSC analysis was made by a TA Q2000 MDSC instrument. The instrumental parameters used are listed below.
FIGS. 2A and 2B show the results of the TGA and DSC analyses, respectively.

[4] = target: GPR40 (Homo sapiens, UniProt O14842); experiment: Cell-based aequorin assay (agonistic activity); details: method and reference agonist of U.S. 2020/0223833
Protocol: The agonistic activity of the crystalline form of Compound 1 was measured by using the method described in U.S. Patent Application Publication No. 2020/0223833, which is incorporated herein by reference. The agonistic activity of the crystalline form of Compound 1 was higher than 70% of the activity of the reference agonist used in U.S. Patent Application Publication No. 2020/0223833, which falls within the category of the publication.

GPR40, sequence (O14842 whole entry, species assumed): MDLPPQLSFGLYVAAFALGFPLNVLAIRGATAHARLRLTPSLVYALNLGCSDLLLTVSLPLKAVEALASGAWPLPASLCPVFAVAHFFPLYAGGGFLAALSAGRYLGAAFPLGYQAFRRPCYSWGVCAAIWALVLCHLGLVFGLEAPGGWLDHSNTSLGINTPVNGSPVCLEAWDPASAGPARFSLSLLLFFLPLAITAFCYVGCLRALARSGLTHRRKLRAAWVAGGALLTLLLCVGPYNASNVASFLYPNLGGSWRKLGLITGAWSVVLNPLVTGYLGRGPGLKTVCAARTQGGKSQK

solubility ([1]; 2-Butanone, 20° C.): > 100000 µg/mL
solubility ([1]; 2-Propanol, 20° C.): 5000 to 6000 µg/mL (≈ 9.97 to 12 mM)
solubility ([1]; Acetone, 20° C.): > 100000 µg/mL
solubility ([1]; Acetone/water 90:10, 20° C.): > 100000 µg/mL
solubility ([1]; Acetonitrile, 20° C.): 6000 to 8000 µg/mL (≈ 12 to 16 mM)
solubility ([1]; Dichloromethane, 20° C.): > 100000 µg/mL
solubility ([1]; Ethyl acetate, 20° C.): 50000 to 100000 µg/mL (≈ 99.7 to 199 mM)
solubility ([1]; Methanol, 20° C.): 6000 to 8000 µg/mL (≈ 12 to 16 mM)
solubility ([1]; Methanol/water 90:10, 20° C.): 1000 to 2000 µg/mL (≈ 1.99 to 3.99 mM)
solubility ([1]; Methyl tert-butyl ether, 20° C.): 2000 to 5000 µg/mL (≈ 3.99 to 9.97 mM)
solubility ([1]; Tetrahydrofuran, 20° C.): > 100000 µg/mL
solubility ([1]; Toluene, 20° C.): 10000 to 12000 µg/mL (≈ 19.9 to 23.9 mM)
solubility ([1]; i-Propyl acetate, 20° C.): 17000 to 25000 µg/mL (≈ 33.9 to 49.8 mM)
2nd adsorption cycle (0-90% RH), adsorbed water ([2]; GVS isotherm, 25 °C, 0-90% RH): 0.135 % w/w
1st adsorption cycle (50-90% RH), adsorbed water ([2]; GVS isotherm, 25 °C, 50-90% RH): 0.119 % w/w
1st desorption cycle (90-0% RH), desorbed water ([2]; GVS isotherm, 25 °C, 90-0% RH): 0.127 % w/w
hygroscopic behavior ([2]; GVS, 25 °C): non-hygroscopic
weight gain ([2]; from dryness to 90% RH during the second adsorption cycle): less than 0.2 % w/w
thermal stability ([3]; TGA/DSC, heating rate 10° C./min): relatively high thermal stability
TGA weight loss ([3]; from ambient to 130° C.): 0.13 % w/w
agonistic activity relative to the activity of the reference agonist [4]: higher than 70%
SMILES: CC#C[C@@H](CC(=O)O)c1ccc(O[C@@H]2CCc3c(-c4ccc(O[C@@H]5CCOC5)nc4)ccc(F)c32)cc1 [Crystalline Form Compound 1, (S)-3-(4-(((R)-7-Fluoro-4-(6-(((R)-tetrahydrofuran-3-yl)oxy)pyridin-3-yl)-2,3-dihydro-1H-inden-1-yl)oxy)phenyl)hex-4-ynoic acid]

Reference: patent publication US20230022803A1, “NOVEL CRYSTALLINE FORM OF GPR40 AGONIST” (ILDONG Pharmaceutical Co., Ltd., priority 2021, published 2023)
